Laboratory results reported in patent US20260055083A1, “APOL1 INHIBITORS AND METHODS OF USE” (Maze Therapeutics, Inc., priority 2022, published 2026).
pEC50: −log10 of the molar value.

Assays:
APOL1 G2 [1] = molecular target: T1, APOL1 G2 (Homo sapiens, UniProt O14791, DEL388-389); assay: APOL1 G2 FLIPR calcium influx assay (HEK T-REx/GCaMP6f/APOL1 G2 K6.3 cells); assay type: cell-based; conditions: HEK293 clone expressing GCaMP6f, doxycycline-induced APOL1 G2; prevention of calcium influx; geometric mean of at least 2 assay runs
T1 construct: expressed in transfected cells; host or cells: HEK293/T-REx APOL1 G2 clone #2, doxycycline-inducible
T1 sequence (O14791 with tags, fused parts or gaps DEL388-389): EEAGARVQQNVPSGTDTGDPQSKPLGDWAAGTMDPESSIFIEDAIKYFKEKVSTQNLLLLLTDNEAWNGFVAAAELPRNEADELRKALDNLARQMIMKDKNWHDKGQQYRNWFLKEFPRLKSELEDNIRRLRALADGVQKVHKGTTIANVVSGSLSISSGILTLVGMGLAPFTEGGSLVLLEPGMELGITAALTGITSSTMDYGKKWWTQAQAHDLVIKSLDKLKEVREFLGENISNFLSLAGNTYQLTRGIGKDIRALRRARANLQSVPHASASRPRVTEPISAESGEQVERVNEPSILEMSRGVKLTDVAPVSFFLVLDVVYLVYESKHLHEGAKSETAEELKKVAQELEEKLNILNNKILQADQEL
Method: A HEK293 clonal cell line was generated to stably express GCaMP6f, a genetically encoded calcium indicator, and inducibly express APOL1 G2 (HEK T-REx/GCaMP6f/APOL1 G2 K6.3). Cells were maintained in the following standard complete medium: DMEM with 4.5 g/L glucose and sodium pyruvate (BioWhittaker, Lonza, BE12-614F), supplemented with 10% FBS Performance Plus (Gibco, 16000044), 1% penicillin-streptomycin (BioWhittaker, DE17-602E), 2 mM ultraglutamine-1 (BioWhittaker cat. BE 17-605/U1), 50 μg/mL Zeocin (InvivoGen, ant-zn), 2.5 μg/mL Blasticidin (InvivoGen, ant-bl-5), and 25 μg/mL Hygromycin (InvivoGen, ant-hg). Standard propagation conditions consisted of plating 9×10^6, 4×10^6, 2×10^6 cells in a T225 flasks to be processed after 2, 3, or 4 days, respectively.
A source plate was generated containing 20 serially diluted compounds in DMSO (duplicate 8-point dose response). Next, 0.8 μL of compounds were transferred from the source plate to a destination plate prefilled with 79.2 μL of Ca^2+ free Tyrode's buffer (130 mM NaCl, 5 mM KCl, 1 mM MgCl2, 5 mM NaHCO3, 20 mM HEPES at pH 7.4). The destination plate was placed on a plate shaker (5 seconds at 2000 rpm) to mix. […] All transfer and mixing steps were conducted with an CyBi®-Well dispenser.
Cells were split by gently washing with DPBS (Euroclone, ECB4004L), followed by a 5-minute incubation (humidified, 37° C. with 5% CO2) with trypsin-EDTA solution (Euroclone, ECB3052D). Detached cells were diluted with standard complete medium without selective agents, counted, and plated in a 384 MTP microplate (GR4332CPL, Twin Helix) (10,000 cells/well in 25 μl/well) using a MATRIX WellMate dispenser. Plates were placed into a humidified incubator (37° C. with 5% CO2) overnight. The following day, 20 μL of doxycycline (Sigma, D9891) at 20 ng/mL in standard complete medium was added to cells with a CyBi®Drop dispenser to induce APOL1 G2 expression. After a 6-hour incubation (humidified, 37° C. with 5% CO2), cells were washed 3 times with Ca^2+ free Tyrode's Buffer (130 mM NaCl, 5 mM KCl, 1 mM MgCl2, 5 mM NaHCO3, 20 mM HEPES at pH 7.4) using a BIOTEK Microplate washer, such that 10 μL of buffer remained in each well after the final wash. Assay plates were then stored at room temperature for 10 minutes. Next, 10 μL of diluted compounds were transferred to the assay plate from the 2× compound plate using a CyBi®-Well dispenser. Compound incubation was then carried out at room temperature for 10 minutes. The assay plate was transferred to the […] and 20 μL of 10 mM Ca^2+ (final concentration=5 mM) Tyrode's buffer was injected.
Table B1 below summarizes the data from this experiment. Unless otherwise specified, AC50 and values are reported as the geometric mean of at least 2 assay runs on separate days. Each run represents the average of a technical replicate, where each compound was assayed twice in the same plate. A superscript t symbol indicates a value from the average of a technical replicate from a single assay run, where each compound was assayed twice in the same plate.
The AC50 values in Table B1 below reflect the compound's ability to prevent calcium influx by inhibiting APOL1. […] Compounds in Table B1 are referred to by the corresponding Compound Number in Table 1, which is also referred to in the synthetic examples. When one or more of the numbered compounds are identified by stereochemistry (for example, (R)- or (S)-), the specific stereoisomer for which data is provided in Table B1 may be identified by the elution order of such compound as described in the synthetic examples. To illustrate, Compound 2 is the first-eluting enantiomer of step 4 of Example 1 and Compound 3 is the second-eluting enantiomer of step 4 of Example 1. Further, by way of illustration, Compound 27 is the first-eluting enantiomeric mixture in step 4 of Example 7 and Compound 28 is the second-eluting enantiomeric mixture in step 4 of Example 7. […]

APOL1 G2 [2] = molecular target: T1, APOL1 G2; assay: APOL1 G2 HEK293 rescue of cell death caused by overexpression of APOL1 (CellTiter-Glo); assay type: cell-based; conditions: HEK293/T-REx APOL1 G2 clone #2, doxycycline induction, 17 hours, CellTiter-Glo luminescence; reversal of cell death; geometric mean of at least 2 assay runs
Method: A HEK293 clonal cell line overexpressing APOL1 G2 (HEK293/T-REx APOL1 G2/clone #2) was maintained in 1×DMEM-GlutaMax (Gibco, 10569-010) media with 10% tetracycline-free FBS (Takara Bio USA, 631101), 5 μg/mL Blasticidin (Gibco, A1113903), and 100 μg/mL Zeocin (Invitrogen, R25001) in T75 flasks. In preparation for the assay, this media was aspirated and 2 mL of prewarmed TrypLE Express (Gibco, 12605-010) was added to a flask to detach cells. The flask was then incubated (humidified, 37° C. with 5% CO2) for 3-5 minutes. Afterwards, 8 mL of prewarmed cell assay media (1×DMEM-GlutaMax media with 10% tetracycline-free FBS) was added to the trypsinized cells. The suspension was gently mixed, and cells were counted using a Countess Cell Counting Chamber (Invitrogen). The suspension was diluted using cell assay media to generate a working stock solution (166,667 cells/mL). Using a MultiDrop Combi (Thermo Electron Corp), 30 μL (final cell density=5,000 cells/well) of the working stock solution was dispensed into each well of white 384-well assay ready plates (Nunc™, 164610) containing 6 ng/mL doxycycline, to induce APOL1 expression, and compound. All compounds were plated in a duplicate 8-point dilution series that consisted of 3-fold stepwise dilutions (0.5% DMSO final). Assay plates were incubated (humidified, 37° C. with 5% CO2) for 17 hours. After the incubation, the plates were equilibrated at room temperature for 1 hour. Next, 15 μl of CellTiter-Glo® reagent (Promega, G7570) was added to each well using a MultiDrop Combi. Plates were placed on an orbital shaker (500 rpm) for 5 minutes to induce cell lysis and then incubated at room temperature for 10 minutes. Luminescence was measured on an Envision plate reader. Collaborative Drug Discovery software was utilized for graphing data. Plots were generated using a four parameter logistic curve fit.
Table B2 below provides the results from this experiment. Unless otherwise specified, EC50 values are reported as the geometric mean of at least 2 assay runs on separate days. Each run represents the average of a technical replicate, where each compound was assayed twice in the same plate. A superscript t symbol indicates a value from the average of a technical replicate from a single assay run, where each compound was assayed twice in the same plate. Compounds in Table B2 are referred to by the corresponding Compound Number in Table 1, which is also referred to in the synthetic examples. When one or more of the numbered compounds are identified by stereochemistry (for example, (R)- or (S)-), the specific stereoisomer for which data is provided in Table B2 may be identified by the elution order of such compound as described in the synthetic examples. To illustrate, Compound 2 is the first-eluting enantiomer of step 4 of Example 1 and Compound 3 is the second-eluting enantiomer of step 4 of Example 1. Further, by way of illustration, Compound 27 is the first-eluting enantiomeric mixture in step 4 of Example 7 and Compound 28 is the second-eluting enantiomeric mixture in step 4 of Example 7. Then, Compound 27 is separated into Compound 29 (the first-eluting enantiomer) and Compound 30 (the second-eluting enantiomer) in Example 8, and Compound 28 is separated into Compound 31 (the first-eluting enantiomer) and Compound 32 (the second-eluting enantiomer) in Example 8. Absolute stereochemistry of such compounds may be identified by methods known in the art.
Rescue EC50 values reported in Table B2 below represent the half-maximal effective concentration for reversal of cell death caused by overexpression of APOL1.

AC50 (APOL1 G2 [1]) | SMILES | pEC50 (APOL1 G2 [2])
346 nM | C[C@@H]1CN(CCc2cccc(C#N)c2)C[C@H]1COc1ccc(S(C)(=O)=NCCS(C)(=O)=O)cc1 (single isomer, unassigned) [Compound 69] | 6.42
1560 nM | CS(=O)(=O)c1ccc(OC[C@H]2CN(CCc3cccc(Cl)c3)C[C@@H]2CO)cc1 [Compound 22, [(3R,4R)-1-[2-(3-chlorophenyl)ethyl]-4-[(4-methanesulfonylphenoxy)methyl]pyrrolidin-3-yl]methanol] | < 4.73
1750 nM | C[C@@H]1CN(C2CCc3ccc(Cl)cc3C2)C[C@H]1COc1ccc(S(C)(=O)=O)cc1 (single isomer, unassigned) [Compound 15, (3S,4S)-1-[(2S or 2R)-7-chloro-1,2,3,4-tetrahydronaphthalen-2-yl]-3-[(4-methanesulfonylphenoxy)methyl]-4-methylpyrrolidine] | 5.74
480 nM | C[C@@H]1CN(C(CO)Cc2cc(Cl)cc(C#N)c2)C[C@H]1COc1ccc(S(C)(=O)=O)cc1 (stereo partly drawn) [Compound 120, 3-chloro-5-[3-hydroxy-2-[(3S,4S)-3-[(4-methanesulfonylphenoxy)methyl]-4-methylpyrrolidin-1-yl]propyl]benzonitrile] | 5.98
621 nM | CC(=O)N(C)CCS(=O)(=O)c1ccc(OC[C@H]2C[C@@H](C)N(CCc3cc(Cl)cc(C#N)c3)C2)cc1 [Compound 66, N-[2-(4-{[(3S,5R)-1-[2-(3-chloro-5-cyanophenyl)ethyl]-5-methylpyrrolidin-3-yl]methoxy}benzenesulfonyl)ethyl]-N-methylacetamide] | 7.11
 | C[C@@H]1C[C@H](COc2ccc(S(=O)(=O)C3CNC3)cc2)CN1C1CCc2ccc(C#N)cc2C1 (single isomer, unassigned) [Compound 28] | 6.40
 | C[C@@H]1C[C@H](COc2ccc(S(=O)(=O)C3CNC3)cc2)CN1C1CCc2ccc(C#N)cc2C1 (single isomer, unassigned) [Compound 27] | 6.84
 | Cc1cc(OC[C@@H]2CN(CCc3cccc(C#N)c3)C[C@H]2C)cnc1S(C)(=O)=O [Compound 87, 3-{2-[(3S,4S)-3-{[(6-methanesulfonyl-5-methylpyridin-3-yl)oxy]methyl}-4-methylpyrrolidin-1-yl]ethyl}benzonitrile] | 6.73
 | C[C@@H]1CN(CCc2cccc(C#N)c2)C[C@H]1COc1cc(F)c(S(C)(=O)=O)c(F)c1 [Compound 81, 3-{2-[(3S,4S)-3-[(3,5-difluoro-4-methanesulfonylphenoxy)methyl]-4-methylpyrrolidin-1-yl]ethyl}benzonitrile] | 6.84
 | COC(=O)CCCS(=O)(=O)c1ccc(OC[C@@H]2CN(CCc3cccc(Cl)c3)C[C@H]2C)cc1 [Compound 79, methyl 4-(4-{[(3S,4S)-1-[2-(3-chlorophenyl)ethyl]-4-methylpyrrolidin-3-yl]methoxy}benzenesulfonyl)butanoate] | 6.48
 | C[C@@H]1C[C@H](COc2ccc(S(=O)(=O)C3CNC3)cc2)CN1C1CCc2ccc(C#N)cc2C1 (single isomer, unassigned) [Compound 29] | 7.23
 | CN=S(C)(=O)c1ccc(OC[C@H]2C[C@@H](C)N(C3CCc4ccc(C#N)cc4C3)C2)cc1 (single isomer, unassigned) [Compound 37, (7R or 7S)-7-[(2R,4S)-2-methyl-4-({4-[methyl(methylimino)oxo-λ^6-sulfanyl]phenoxy}methyl)pyrrolidin-1-yl]-5,6,7,8-tetrahydronaphthalene-2-carbonitrile] | 6.11
 | C[C@H]1CN(CCc2cccc(Cl)c2)C[C@@H]1COc1ccc(S(C)(=O)=O)cc1 [Compound 92, (3R,4R)-1-[2-(3-chlorophenyl)ethyl]-3-[(4-methanesulfonylphenoxy)methyl]-4-methylpyrrolidine] | 5.68
 | C[C@@H]1CN(CC(O)c2cccc(Cl)c2)C[C@H]1COc1ccc(S(C)(=O)=O)cc1 (single isomer, unassigned) [Compound 91, (1R) or (1S)-1-(3-chlorophenyl)-2-[trans-3-[(4-methanesulfonylphenoxy)methyl]-4-methylpyrrolidin-1-yl]ethan-1-ol] | 5.79
